Source: patent US7067523B2, “Use of pyrone carboxylates for controlling pests” (Sumitomo Chemical Company, Limited, priority 2002, dated 2006)

Test system: Blattela germanica
Experiment: Topical application to adult female Blattela germanica, mortality after 7 days
Type: in vivo
Conditions: 1 μl of 20 μg/μl acetone solution applied to ventral thorax of adult female, 10 insects per group, triplicate
Method: 1 μl of a 20 μg/μl acetone solutions of each of the present compounds No. 1 and the control compound was applied onto the surface of the ventral region of the thorax of adult female Blattela germanica. These insects were kept with a feed (solid feed for rat, Oriental Yeast, Co., Ltd.) and water for 7 days. Subsequently, the insects were examined for death to obtain mortality (10 insects per group, triplicate).
In a similar manner to the Experiment example 1, using a 20 μg/μl acetone solution of each of the present compounds Nos. 2, 3, 4, 5, 6, 7, 10, 11, 13, 14, 15, 16 and 18 instead of the present compound No. 1 and the control compound, the experiment was carried out to obtain mortality of the cockroach.
In a similar manner to the Experiment example 1, using a 2.5 μg/μl acetone solution of each of the present compounds Nos. 5 and 6 instead of the present compound No. 1 and the control compound, the experiment was carried out to obtain mortality of the cockroach.

CCC(=O)c1c(O)cc(C)oc1=O [control compound, 4-hydroxy-6-methyl-3-propanoyl-2-pyrone]
mortality: 30%

CCOC(=O)c1c(O)cc(C)oc1=O [Compound No. 1, ethyl 4-hydroxy-6-methyl-2-oxo-2H-pyrane-3-carboxylate]
mortality: 100%
